Laboratory results reported in article PMC10979003, “Development and crystal structures of a potent second-generation dual degrader of BCL-2 and BCL-xL” (Nature Communications, 2024).

Experiments:
WT BCL-xL = biological target: T1, WT BCL-xL (Homo sapiens, UniProt Q07817); test: AlphaScreen displacement binary binding assay, WT BCL-xL; conditions: for Kd: Supplementary Fig. 11
T1 construct: BCL-xL (aa 2-212) and BCL-2 (aa 1-207) transformed cells were grown in LB broth; SMT3 (N); made in house; host or cells: E. coli BL21 (DE3) codon plus
T1 sequence (Q07817 2-212): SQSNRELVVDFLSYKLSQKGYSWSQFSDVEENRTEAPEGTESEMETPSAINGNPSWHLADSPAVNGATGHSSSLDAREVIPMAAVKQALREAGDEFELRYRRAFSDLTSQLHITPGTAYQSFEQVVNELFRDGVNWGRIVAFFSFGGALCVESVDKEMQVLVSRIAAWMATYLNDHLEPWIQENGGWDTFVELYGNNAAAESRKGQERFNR
Experimental: To test the binary/ternary binding affinities of compounds to BCL-2/BCL-xL, AlphaScreen displacement binding assay was performed to test the capabilities of testing compounds to displace a Biotin-tagged Bim (Biotin-[…]) or Bad (Biotin-[…]) from BCL-2 or BCL-xL for BCL-2 and BCL-xL binding affinities, respectively. All reagents were diluted in assay buffer of 25 mM HEPES, pH 7.5, 150 mM NaCl, 0.1% BSA, and 0.005% tween 20 prior incubation. To a 96-well PCR plate (VWR, Cat. No. 82006-636) was added 10 μL Biotin-tagged Bim (15 nM for WT or 50 nM for mutants) or Bad (15 nM for WT or 50 nM for mutants), 10 μL series diluted compounds solution (2 or 3 or 4× dilution), and 10 μL self-made 6×His tagged BCL-2 WT or mutants (25 nM WT or 50 nM mutants) or 10 μL self-made BCL-xL WT and mutants (10 nM WT or 50 nM mutants). After incubating at room temperature for 30 min, 5 µL of 160 μg/mL of anti-6×His acceptor beads (PerkinElmer, Cat. No. AL128M) was added and the mixture was incubated at room temperature for 15 min. 5 µL of 160 μg/mL of streptavidin donor beads (PerkinElmer, 6760002) was then added under subdued light and the mixture was incubated at dark for 30 min before being transferred to two adjacent wells (17 µL each) of 384-well white OptiPlate (PerkinElmer, Cat. No. 6008280). The luminescence signal was detected on a Biotek’s Synergy Neo2 multimode plate reader installed with an AphaScreen filter cube. The Ki values of each compounds were calculated by fitting data into the “Binding-competitive, One site-Fit Ki” function in GraphPad Prism (9.2.0) based on concentrations of Biotin–peptide used and experimentally determined Kd values of each 6×His protein &&&and Biotin–Peptide pair.

HeLa cells = test: DIA proteomics in HeLa cells; assay type: cell-based, human; conditions: for Off-target effects (two proteomic analyses): TMT (Jurkat) and DIA (HeLa) proteomics
Description: Given the somewhat inconclusive nature of the TMT results, we made additional efforts to characterize the on-target and off-target effects of our BCL-xL and BCL-2 dual PROTACs using a different proteomics analysis technique, i.e. the Data-Independent Acquisition (DIA) proteomics approach. This approach can avoid the limitation of TMT-labeling deficiency for some proteins/peptides. Specifically, we conducted DIA proteomics profiling using HeLa cells because these cells are primarily dependent on MCL-1 for survival and thus resistant to apoptosis after BCL-xL and BCL-2 degradation. To our delight, we were able to identify over 7200 proteins, including both BCL-xL and BCL-2 (Supplementary Fig. 10d), using this method.
Cells were lysed in buffer containing 5% SDS/50 mM triethylammonium bicarbonate (TEAB) in the presence of protease and phosphatase inhibitors (Halt; Thermo Scientific) and nuclease (Pierce™ Universal Nuclease for Cell Lysis; Thermo Scientific). Aliquots corresponding to 100 µg protein (EZQ™ Protein Quantitation Kit; Thermo Scientific) were reduced with tris(2-carboxyethyl)phosphine hydrochloride (TCEP), alkylated in the dark with iodoacetamide and applied to S-Traps (mini; Protifi) for tryptic digestion (sequencing grade; Promega) in 50 mM triethylammonium bicarbonate (TEAB). Peptides were eluted from the S-Traps with 0.2% formic acid in 50% aqueous acetonitrile and quantified using Pierce™ Quantitative Fluorometric Peptide Assay (Thermo Scientific). Data-independent acquisition mass spectrometry (DIA-MS) was conducted on a Thermo Scientific Orbitrap Exploris 480 mass spectrometer. […] A pool was made of the three control (DMSO) samples, and 2-µg peptide aliquots were analyzed using gas-phase fractionation and 4-m/z windows (30k resolution for precursor and product ion scans) to create an empirically-corrected DIA chromatogram library[72] by searching against a Prosit-generated predicted spectral library[73] based on the UniProt_Human_ref 9606_20220216 protein sequence database (20,588 sequences; 11,394,277 residues). […]

Ki (WT BCL-xL; mean ± s.d., n=3) [nM]	SMILES	Kd (WT BCL-xL) [nM]	Off-target effects (two proteomic analyses) (HeLa cells)	Degradation of BCL-xL and BCL-2 by DIA proteomics (comparison) (HeLa cells; HeLa cells)
21.9 ± 7.3	Cc1ncsc1-c1ccc(C(C)NC(=O)C2CC(O)CN2C(=O)C(NC(=O)CCCCCCC(=O)N2CCN(CC3(C)CCC(c4ccc(Cl)cc4)=C(CN4CCN(c5ccc(C(=O)NS(=O)(=O)c6ccc(NC(CCN7CCOCC7)CSc7ccccc7)c(S(=O)(=O)C(F)(F)F)c6)cc5)CC4)C3)CC2)C(C)(C)C)cc1 (stereo not drawn) [753b]	~28	limited off-target effects	–
–	Cc1ncsc1-c1ccc([C@H](C)NC(=O)[C@@H]2C[C@@H](O)CN2C(=O)[C@@H](NC(=O)CN2CCN(CC(=O)N3CCN(C[C@]4(C)CCC(c5ccc(Cl)cc5)=C(CN5CCN(c6ccc(C(=O)NS(=O)(=O)c7ccc(N[C@H](CCN8C[C@@H]9C[C@H]8CO9)CSc8ccccc8)c(S(=O)(=O)C(F)(F)F)c7)cc6)CC5)C4)CC3)CC2)C(C)(C)C)cc1 [WH244]	~6.14	limited off-target effects	superior efficacy in the degradation of both proteins
